In brackets after ≈: the same amount, converted by molar mass. Several values for one entry are separate records, joined by “and”; a condition that tells them apart may be missing. Identical values can stand only once. Like-named read-outs stand apart in the source and are kept apart here.
Tests used:
[1] = system: Staphylococcus aureus MRSA; experiment: microbe, parasite or virus in culture; format: cell-based
[2] = system: Streptococcus pyogenes ATCC 51878; experiment: MIC determination; format: cell-based; settings: ATCC51878
[3] = system: Enterococcus faecalis; experiment: MIC determination; format: cell-based
[4] = system: Staphylococcus epidermidis ATCC 12228; experiment: MIC determination; format: cell-based; settings: ATCC12228
[5] = system: Mycobacterium abscessus ATCC 19977; experiment: MIC determination (resazurin); format: cell-based; settings: Mycobacteroides abscessus, ATCC19977
[6] = system: E. faecium VRE 55A6; experiment: microbe, parasite or virus in culture; format: cell-based, Enterococcus faecium; settings: for MIC Alone / MIC: compound alone in checkerboard; for MIC: Enterococcus faecium, VRE, read-out: MIC Alone, E. faecium VRE 55A6
Text: In therapeutic applications, synergy between active ingredients occurs when an observed combined therapeutic effect is greater than the sum of therapeutic effects of individual active ingredients, or a new therapeutic effect is produced that the active ingredients could not produce alone. […] In this context, the enhancement of therapeutic effect may take the form of increased efficacy or potency and/or decreased adverse effects. The synergistic effect may be mediated in whole or in part by the pharmacokinetics and/or pharmacodynamics of the active ingredients in a subject, so that the amount and proportion of the ingredients in the formulation may be synergistic in vivo. This in vivo synergy may be effected with a formulation that includes the active ingredients in amounts and proportions that are also synergistic in in vitro assays of efficacy. As used herein, the term “synergistically effective amounts” accordingly refers to amounts that are synergistic in vivo and/or in vitro. A numeric quantification of synergy is often expressed as a fractional inhibitory concentration index (FICI), which represents the sum of the fractional inhibitory concentrations (FICs) of each drug tested, where the FIC is determined for each drug by dividing the minimum inhibitory concentration (MIC, the lowest concentration of the drug which prevents visible growth of the bacterium in a standard in vitro assay-standard colorometric assay based on resazurin) of each drug when used in combination by the MIC of each drug when used alone. In very general terms, a FICI lower or higher than 1 indicates positively correlated activity (at least additive or potentiation) or an absence of positive interactions, respectively. More definitively, synergy of two compounds may be conservatively defined as a FICI of ::::0.5 (see Odds, 2003; with additivity or potentiation corresponding to a FICI of >0.5 to ::::0.75; no interaction (indifference) corresponding to a FICI of >1 to ::::4; and antagonism corresponding to a FICI of >>4). […] (Berenbaum, 1978; Yu et al., 1980). To estimate the optimal concentrations in triple combinations, the optimal concentrations of trans-caryophyllene and cannabinoid were utilized in combination with a series of daptomycin dilutions.
Pre-cultures of bacteria growing in their corresponding liquid media (defined below) were diluted to an 00600 of 0.0025 and 100 μl was added to 100 μl of medium containing serial 2-fold dilutions of cannabinoid (cannabinoid stocks, in methanol or acetonitrile for acidic forms, were diluted in growth medium) in 96-well plates. Plates were then incubated for 20-24 h at 37° C., and growth was recorded as 00600 in a Thermo Scientific™ Varioskan™ Flash Multimode Reader.
FICI values was determined in a 96 well checkerboard format using the MIC assay for cannabinoids (compound A), terpenes (compound B), and daptomycin (compound C) alone and in combinations. Terpene stocks were prepared in DMSO and diluted in the growth medium. The fractional inhibitory concentration for each compound was calculated as follows: FICA=(MIC of compound A in the presence of compound B)/(MIC of compound A alone). Similarly, the FICs for compounds Band C were calculated. The FICI was calculated as FICA plus FICs plus FICc.

[7] = system: E. faecium strains 3303, 69C6, 58C9 and 55A6; experiment: Kill curves (CFU by serial dilution); format: cell-based, Enterococcus faecium; settings: for kinetics of E. faecium killing: at equal concentrations of CBD, CBG, or CBC; for kinetics of E. faecium killing / bactericidal activity (viability, CFU): FIG. 1; for bactericidal activity (viability, CFU): cannabinoid alone, 1x-4x MIC, planktonic E. faecium; for growth and CFU in combination with daptomycin: ½×MIC of cannabinoid with 1×-⅛×MIC of daptomycin, strains 3303, 58C9, 55A6
[8] = system: E. faecium clinical isolate 69C6 (vancomycin resistant); settings: for Fold reduction in daptomycin MIC in combination with the cannabinoid: E. faecium isolate 69C6
[9] = system: E. faecium clinical isolate 58C9 (vancomycin and daptomycin resistant); settings: for Fold reduction in daptomycin MIC in combination with the cannabinoid: E. faecium isolate 58c9; for MIC: clinical enterococcal strain 58C9, vancomycin and daptomycin resistant
[10] = system: E. faecium clinical isolate 69C6 (vancomycin resistant); experiment: microbe, parasite or virus in culture; settings: Enterococcus faecium
[11] = system: E. faecium clinical isolate 55A6 (vancomycin and daptomycin resistant); experiment: microbe, parasite or virus in culture; settings: Enterococcus faecium
[12] = E. faecium VRE 55A6, pairwise, with daptomycin
[13] = E. faecium VRE 55A6, pairwise, with trans-caryophyllene
[14] = E. faecium VRE 55A6, triple, with daptomycin and trans-caryophyllene
[15] = E. faecium VRE 55A6, pairwise, with CBC
[16] = E. faecium VRE 55A6, pairwise, with CBD
[17] = E. faecium VRE 55A6, pairwise, with CBG
[18] = E. faecium VRE 55A6, text b61, Table 7D
[19] = E. faecium VRE 55A6, triple, with CBC and trans-caryophyllene
[20] = E. faecium VRE 55A6, triple, with CBD and trans-caryophyllene
[21] = E. faecium VRE 55A6, triple, with CBG and trans-caryophyllene

Row | SMILES | MIC [1] | MIC ([2]; Streptococcus pyogenes) | MIC [3] | MIC ([4]; Staphylococcus epidermidis) | MIC [5] | MIC Alone ([6]; E. faecium VRE 55A6) | MIC In combination [6, 12] | Max. fold change in MIC [6, 12] | MIC In combination [6, 13] | Max. fold change in MIC [6, 13] | MIC In combination [6, 14] | Max. fold change in MIC [6, 14] | MIC [6] | kinetics of E. faecium killing [7] | bactericidal activity (viability, CFU) [7] | growth and CFU in combination with daptomycin [7] | Fold reduction in daptomycin MIC in combination with the cannabinoid [8] | Fold reduction in daptomycin MIC in combination with the cannabinoid [9] | MIC [10] | MIC [11] | other results
1 | CCCCCc1cc(O)c2c(c1)OC(C)(CCC=C(C)C)C=C2 (centres unmarked) [CBC, cannabichromene] | 4 µg/mL (≈ 12.7 µM) | 1 µg/mL (≈ 3.18 µM) | 2 µg/mL (≈ 6.36 µM) | 4 µg/mL (≈ 12.7 µM) | 4 µg/mL (≈ 12.7 µM) | 1 µg/mL | 0.25 µg/mL | 8 fold | 0.5 µg/mL | 2 fold | 0.25 µg/mL | 8 fold | 2 µg/mL | faster than for CBO | bactericidal | significantly inhibited growth of all strains and reduced CFU | 32 Fold | 8 Fold | 1 µg/mL (≈ 3.18 µM) | 1 µg/mL (≈ 3.18 µM) | –
2 | C=C(C)[C@@H]1CCC(C)=C[C@H]1c1c(O)cc(CCCCC)cc1O [CBD, cannabidiol, reference compound] | – | – | – | – | – | 2 µg/mL | 0.5 µg/mL | – | 1 µg/mL | – | 0.5 µg/mL | – | 4 µg/mL | – | bactericidal | significantly inhibited growth of all strains and reduced CFU | – | – | 1 µg/mL (≈ 3.18 µM) | 2 µg/mL (≈ 6.36 µM) | MIC ([1]; read-out: MIC): 2 µg/mL (≈ 6.36 µM); MIC ([2]; Streptococcus pyogenes ATCC 51878, read-out: MIC): 1 µg/mL (≈ 3.18 µM); MIC ([3]; read-out: MIC): 2 µg/mL (≈ 6.36 µM); MIC ([4]; Staphylococcus epidermidis ATCC 12228, read-out: MIC): 2 µg/mL (≈ 6.36 µM); MIC ([5]; Mycobacterium abscessus ATCC 19977, read-out: MIC): 16 µg/mL (≈ 50.9 µM)
3 | CCCCCc1cc(O)c(C/C=C(\C)CCC=C(C)C)c(O)c1 [CBG, cannabigerol] | 1 µg/mL (≈ 3.16 µM) | 1 µg/mL (≈ 3.16 µM) | 1 µg/mL (≈ 3.16 µM) | 2 µg/mL (≈ 6.32 µM) | 2 µg/mL (≈ 6.32 µM) | 2 µg/mL | 2 µg/mL | 2 fold | 2 µg/mL | none | 0.5 µg/mL | 4 fold | 4 µg/mL | faster than for CBO | bactericidal | significantly inhibited growth of all strains and reduced CFU | 4 Fold | 64 Fold | 1 µg/mL (≈ 3.16 µM) | 1 µg/mL (≈ 3.16 µM) | –
4 | CCCCCCCCCC(=O)N[C@@H](Cc1c[nH]c2ccccc12)C(=O)N[C@H](CC(N)=O)C(=O)N[C@@H](CC(=O)O)C(=O)N[C@@H]1C(=O)NCC(=O)N[C@@H](CCCN)C(=O)N[C@@H](CC(=O)O)C(=O)N[C@H](C)C(=O)N[C@@H](CC(=O)O)C(=O)NCC(=O)N[C@H](CO)C(=O)N[C@@H]([C@H](C)CC(=O)O)C(=O)N[C@@H](CC(=O)c2ccccc2N)C(=O)O[C@@H]1C [Daptomycin, daptomycin, reference compound] | – | – | – | – | – | 16 µg/mL and >16 µg/mL | – | – | 8 µg/mL | 2 fold | – | – | – | – | – | – | – | – | – | – | MIC In combination [6, 15]: 0.031 µg/mL; Max. fold change in MIC [6, 15]: 512 fold; MIC In combination [6, 16]: 1 µg/mL; Max. fold change in MIC [6, 16]: 16 fold; MIC In combination [6, 17]: 4 µg/mL; Max. fold change in MIC [6, 17]: 4 fold; MIC of daptomycin (alone) [6, 18]: > 16 µg/mL; MIC of daptomycin in the presence of CBC and trans caryophyllene [6, 18]: 0.03 µg/mL; MIC In combination [6, 19]: 0.03 µg/mL; Max. fold change in MIC [6, 19]: >512 fold; Max. fold change in MIC ([6]; E. faecium VRE 55A6, triple, with CBC and trans-caryophyllene, listed as daptomycin): > 512 fold; MIC In combination [6, 20]: 2 µg/mL; Max. fold change in MIC [6, 20]: >8 fold; MIC In combination [6, 21]: 2 µg/mL; Max. fold change in MIC [6, 21]: >8 fold; reduction in CFU ([7]; daptomycin alone at 1×MIC (growth inhibited)): no reduction in CFU; inhibition of growth ([7]; single agent at ½×MIC, all strains (3303, 58C9, 55A6)): effectively no inhibition of growth; MIC ([8]; clinical enterococcal strain 69C6, vancomycin resistant): 1 µg/mL (≈ 0.617 µM); MIC [9]: 8 µg/mL (≈ 4.94 µM); MIC ([9]; listed as daptomycin): 4 µg/mL (≈ 2.47 µM)
